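Step 1: Grow cells in 96-well plates. Step 2: Expose to compound for 48 hours at 5 concentrations. Step 3: Interpolate endpoints linearly; if unreached, use highest concentration. Abbreviation: GI50, concentration required for 50% inhibition of growth.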 Activity calls are given as the source filed them. Cut-off read from the data, not from the text of the source: active = GI50 up to about 1.1 µM and inactive = higher.
How the values were obtained:
Assay in all cases: DTP human tumour cell line panel, 48 h
786-0 = test system: 786-0
A498 = test system: A498
A549 = test system: A549
ACHN = test system: ACHN
CAKI-1 = test system: CAKI-1
CCRF-CEM = test system: CCRF-CEM
COLO 205 = test system: COLO 205
DMS-273 = test system: DMS-273
EKVX = test system: EKVX
HCT-15 = test system: HCT-15
HL-60 = test system: HL-60
HOP-18 = test system: HOP-18
HOP-62 = test system: HOP-62
HOP-92 = test system: HOP-92
HT-29 = test system: HT-29
IGROV-1 = test system: IGROV-1
K562 = test system: K562
KM-20L2 = test system: KM-20L2
KM12 = test system: KM12
LOX IMVI = test system: LOX IMVI
LXFL 529 = test system: LXFL 529
M14 = test system: M14
M19-MEL = test system: M19-MEL
MOLT-4 = test system: MOLT-4
Malme-3M = test system: Malme-3M
NCI-H226 = test system: NCI-H226
NCI-H23 = test system: NCI-H23
NCI-H460 = test system: NCI-H460
NCI-H522 = test system: NCI-H522
OVCAR-3 = test system: OVCAR-3
OVCAR-4 = test system: OVCAR-4
OVCAR-5 = test system: OVCAR-5
OVCAR-8 = test system: OVCAR-8
RPMI-8226 = test system: RPMI-8226
RXF 393 = test system: RXF 393
SF-268 = test system: SF-268
SF-295 = test system: SF-295
SF-539 = test system: SF-539
SK-MEL-28 = test system: SK-MEL-28
SK-MEL-2 = test system: SK-MEL-2
SK-MEL-5 = test system: SK-MEL-5
SK-OV-3 = test system: SK-OV-3
SN12C = test system: SN12C
SNB-19 = test system: SNB-19
SNB-75 = test system: SNB-75
SNB-78 = test system: SNB-78
SW-620 = test system: SW-620
TK-10 = test system: TK-10
U-251 = test system: U-251
UACC-257 = test system: UACC-257
UACC-62 = test system: UACC-62
UO-31 = test system: UO-31
XF498 = test system: XF498
DMS-114 = test system: DMS-114
HCC 2998 = test system: HCC 2998
HCT-116 = test system: HCT-116
SR = test system: SR

Question: For C[C@]12Cc3conc3C(O)=C1CC[C@@H]1C2CC[C@@]2(C)C1CC[C@@H]2O (some centres undefined), which GI50 (786-0) is on record?
Answer: 16.1 µM (inactive)

Question: What about the GI50 (A498) of the same molecule?
Answer: 9.12 µM (inactive)

Question: And the GI50 (A549)?
Answer: 17.9 µM (inactive)

Question: And the GI50 (ACHN)?
Answer: 23.3 µM (inactive)

Question: And the GI50 (CAKI-1)?
Answer: 8.24 µM (inactive)

Question: What about the GI50 (CCRF-CEM) of the same molecule?
Answer: 7.62 µM (inactive)

Question: What about the GI50 (COLO 205) of the same molecule?
Answer: 32.7 µM (inactive)

Question: And the GI50 (DMS-273)?
Answer: 5.22 µM (inactive)

Question: What about the GI50 (EKVX) of the same molecule?
Answer: 17.5 µM (inactive)

Question: And the GI50 (HCT-15)?
Answer: 5.65 µM

Question: And the GI50 (HL-60)?
Answer: 2.55 µM (inactive)

Question: And the GI50 (HOP-18)?
Answer: 41 µM (inactive)

Question: What about the GI50 (HOP-62) of the same molecule?
Answer: 50.4 µM (inactive)

Question: And the GI50 (HOP-92)?
Answer: 22.8 µM (inactive)

Question: What about the GI50 (HT-29) of the same molecule?
Answer: 19.7 µM (inactive)

Question: What about the GI50 (IGROV-1) of the same molecule?
Answer: 26 µM (inactive)

Question: What about the GI50 (K562) of the same molecule?
Answer: 3.66 µM (inactive)

Question: What about the GI50 (KM-20L2) of the same molecule?
Answer: 29.5 µM (inactive)

Question: What about the GI50 (KM12) of the same molecule?
Answer: 12 µM (inactive)

Question: And the GI50 (LOX IMVI)?
Answer: 4.5 µM (inactive)

Question: What about the GI50 (LXFL 529) of the same molecule?
Answer: 15 µM (inactive)

Question: And the GI50 (M14)?
Answer: 12.4 µM (inactive)

Question: And the GI50 (M19-MEL)?
Answer: 11.7 µM (inactive)

Question: And the GI50 (MOLT-4)?
Answer: 6.68 µM (inactive)

Question: What about the GI50 (Malme-3M) of the same molecule?
Answer: 9.4 µM (inactive)

Question: What about the GI50 (NCI-H226) of the same molecule?
Answer: 18 µM (inactive)

Question: And the GI50 (NCI-H23)?
Answer: 18.1 µM (inactive)

Question: And the GI50 (NCI-H460)?
Answer: 12.6 µM (inactive)

Question: And the GI50 (NCI-H522)?
Answer: 2.95 µM (inactive)

Question: And the GI50 (OVCAR-3)?
Answer: 6.22 µM (inactive)

Question: And the GI50 (OVCAR-4)?
Answer: 31.6 µM (inactive)

Question: What about the GI50 (OVCAR-5) of the same molecule?
Answer: 50.2 µM (inactive)

Question: And the GI50 (OVCAR-8)?
Answer: 25.8 µM (inactive)

Question: And the GI50 (RPMI-8226)?
Answer: 1.93 µM (inactive)

Question: What about the GI50 (RXF 393) of the same molecule?
Answer: 17.4 µM (inactive)

Question: What about the GI50 (SF-268) of the same molecule?
Answer: 14.6 µM (inactive)

Question: And the GI50 (SF-295)?
Answer: 18 µM (inactive)

Question: And the GI50 (SF-539)?
Answer: 15.8 µM (inactive)

Question: What about the GI50 (SK-MEL-28) of the same molecule?
Answer: 12.1 µM (inactive)

Question: What about the GI50 (SK-MEL-2) of the same molecule?
Answer: 0.634 µM (active)

Question: What about the GI50 (SK-MEL-5) of the same molecule?
Answer: 10.5 µM (inactive)

Question: What about the GI50 (SK-OV-3) of the same molecule?
Answer: 31.3 µM (inactive)

Question: And the GI50 (SN12C)?
Answer: 28.9 µM (inactive)

Question: And the GI50 (SNB-19)?
Answer: 31.4 µM (inactive)

Question: And the GI50 (SNB-75)?
Answer: 9.77 µM (inactive)

Question: And the GI50 (SNB-78)?
Answer: 22.2 µM (inactive)

Question: And the GI50 (SW-620)?
Answer: 15.5 µM (inactive)

Question: And the GI50 (TK-10)?
Answer: 24.3 µM (inactive)

Question: And the GI50 (U-251)?
Answer: 20 µM (inactive)

Question: What about the GI50 (UACC-257) of the same molecule?
Answer: 21.3 µM (inactive)

Question: What about the GI50 (UACC-62) of the same molecule?
Answer: 4.99 µM (inactive)

Question: And the GI50 (UO-31)?
Answer: 15.3 µM (inactive)

Question: What about the GI50 (XF498) of the same molecule?
Answer: 15 µM (inactive)

Question: Which results are given for N/N=C(/Cc1nc2ccc(C(=O)c3ccccc3)cc2nc1O)C(=O)Nc1ccc([N+](=O)[O-])cc1[N+](=O)[O-]?
Answer: GI50 (786-0): 71.9 µM (inactive); GI50 (A498): > 10 µM (inactive); GI50 (A549): > 10 µM (inactive); GI50 (ACHN): > 10 µM (inactive); GI50 (CAKI-1): > 100 µM (inactive); GI50 (CCRF-CEM): > 10 µM (inactive); GI50 (COLO 205): > 10 µM (inactive); GI50 (DMS-114): > 10 µM (inactive); GI50 (DMS-273): > 10 µM (inactive); GI50 (EKVX): > 100 µM (inactive); GI50 (HCC 2998): > 10 µM (inactive); GI50 (HCT-116): > 10 µM (inactive); GI50 (HCT-15): > 10 µM; GI50 (HL-60): > 10 µM (inactive); GI50 (HOP-18): 35.5 µM (inactive); GI50 (HOP-92): > 10 µM (inactive); GI50 (HT-29): > 10 µM (inactive); GI50 (IGROV-1): > 10 µM (inactive); GI50 (K562): > 10 µM (inactive); GI50 (KM-20L2): > 100 µM (inactive); GI50 (KM12): > 100 µM (inactive); GI50 (LOX IMVI): > 10 µM (inactive); GI50 (LXFL 529): > 10 µM (inactive); GI50 (M14): > 10 µM (inactive); GI50 (M19-MEL): > 10 µM (inactive); GI50 (MOLT-4): > 10 µM (inactive); GI50 (Malme-3M): > 100 µM (inactive); GI50 (NCI-H226): > 10 µM (inactive); GI50 (NCI-H23): > 10 µM (inactive); GI50 (NCI-H460): > 10 µM (inactive); GI50 (NCI-H522): > 10 µM (inactive); GI50 (OVCAR-3): > 10 µM (inactive); GI50 (OVCAR-4): 27.3 µM (inactive); GI50 (OVCAR-5): > 10 µM (inactive); GI50 (OVCAR-8): 81.8 µM (inactive); GI50 (RPMI-8226): > 10 µM (inactive); GI50 (RXF 393): > 100 µM (inactive); GI50 (SF-268): > 10 µM (inactive); GI50 (SF-295): > 10 µM (inactive); GI50 (SF-539): > 100 µM (inactive); GI50 (SK-MEL-28): > 10 µM (inactive); GI50 (SK-MEL-2): > 10 µM (inactive); GI50 (SK-MEL-5): 86.7 µM (inactive); GI50 (SK-OV-3): 55.7 µM (inactive); GI50 (SN12C): > 10 µM (inactive); GI50 (SNB-19): > 100 µM (inactive); GI50 (SNB-75): > 10 µM (inactive); GI50 (SNB-78): > 10 µM (inactive); GI50 (SR): > 10 µM (inactive); GI50 (SW-620): > 100 µM (inactive); GI50 (TK-10): > 100 µM (inactive); GI50 (U-251): > 10 µM (inactive); GI50 (UACC-257): > 100 µM (inactive); GI50 (UACC-62): 49 µM (inactive); GI50 (UO-31): 68.2 µM (inactive); GI50 (XF498): 8.07 µM (inactive)

From ChEMBL document CHEMBL1201862, “PubChem BioAssay data set” (2004)
